According to ChEMBL document CHEMBL1201862, “PubChem BioAssay data set” (2004):
The source made the active and inactive calls. For most assays here, no stated cut-off is given here; in the data, actives have a measured IC50 and inactives only a lower limit.

What was measured:
Assay type in all cases: functional
SUMO-activating enzyme = SUMO-activating enzyme (Homo sapiens, UniProt Q9UBT2); assay: blockers of UBC9-mediated SUMO conjugation – biochemical, AlphaScreen, SUMOylation inhibitor project, confirmation (AID 2018)
Sequence of SUMO-activating enzyme (Q9UBE0 whole entry): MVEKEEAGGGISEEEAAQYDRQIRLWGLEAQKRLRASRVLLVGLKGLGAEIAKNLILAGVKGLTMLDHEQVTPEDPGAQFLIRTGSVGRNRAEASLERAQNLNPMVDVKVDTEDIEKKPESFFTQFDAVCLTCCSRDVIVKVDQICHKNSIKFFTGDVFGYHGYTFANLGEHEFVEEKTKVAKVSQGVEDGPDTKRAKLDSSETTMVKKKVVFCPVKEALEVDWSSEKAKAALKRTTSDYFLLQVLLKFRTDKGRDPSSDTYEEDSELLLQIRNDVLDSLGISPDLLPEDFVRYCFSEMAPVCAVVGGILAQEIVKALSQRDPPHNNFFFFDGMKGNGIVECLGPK
Sequence of SUMO-activating enzyme (Q9UBT2 whole entry): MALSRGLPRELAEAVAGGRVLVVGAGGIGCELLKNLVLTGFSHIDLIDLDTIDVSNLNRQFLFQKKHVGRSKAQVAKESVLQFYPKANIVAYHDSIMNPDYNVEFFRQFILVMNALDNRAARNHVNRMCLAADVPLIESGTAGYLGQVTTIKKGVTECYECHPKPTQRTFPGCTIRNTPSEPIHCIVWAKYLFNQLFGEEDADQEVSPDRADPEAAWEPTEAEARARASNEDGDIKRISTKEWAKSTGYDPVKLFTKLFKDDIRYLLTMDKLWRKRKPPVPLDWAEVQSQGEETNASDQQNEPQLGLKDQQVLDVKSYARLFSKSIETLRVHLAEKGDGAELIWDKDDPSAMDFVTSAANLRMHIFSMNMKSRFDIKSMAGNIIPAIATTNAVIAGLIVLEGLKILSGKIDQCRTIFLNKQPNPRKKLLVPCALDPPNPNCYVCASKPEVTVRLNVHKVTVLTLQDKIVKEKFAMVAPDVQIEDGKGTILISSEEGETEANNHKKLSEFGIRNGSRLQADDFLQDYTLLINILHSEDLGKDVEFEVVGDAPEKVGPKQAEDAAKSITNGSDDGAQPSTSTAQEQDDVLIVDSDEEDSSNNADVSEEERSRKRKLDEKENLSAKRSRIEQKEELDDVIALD

[1] = biological target: T1, Sentrin-specific protease 8 (Homo sapiens, UniProt Q96LD8); assay: inhibition of human SENP8 cleavage activity – biochemical, luminescence, SAR follow-up (AID 504501)
T1 sequence (Q96LD8 whole entry): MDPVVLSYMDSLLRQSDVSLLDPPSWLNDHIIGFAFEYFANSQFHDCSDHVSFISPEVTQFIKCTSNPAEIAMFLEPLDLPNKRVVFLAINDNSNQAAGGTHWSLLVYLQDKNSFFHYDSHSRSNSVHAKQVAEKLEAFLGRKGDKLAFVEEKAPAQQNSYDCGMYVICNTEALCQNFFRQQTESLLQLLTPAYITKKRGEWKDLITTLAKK

BJ = assay: BJ-TERT fibroblast viability loss – cell-based, RAS-independent, luminescence, dose response (AID 1933); conditions: Homo sapiens

## COc1ccc(/C=N/Nc2cc(N3CCCC3)nc(N3CCCC3)n2)cc1
SUMO-activating enzyme
  IC50: 680 nM (active)

## Oc1ccc(/C=N/Nc2cc(N3CCCC3)nc(N3CCCC3)n2)cc1
[1]
  IC50: > 99000 nM (inactive)

## COc1ccc(S(=O)(=O)/N=C2\C=C(Nc3ccc(O)cc3)C(=O)c3ccccc32)cc1
BJ
  EC50: 1530 nM (active)
